Drawing on ChEMBL document CHEMBL1138506, “Exploration of structure-activity relationship determinants in analogue series” (J Med Chem, 2009), this text covers Activity for 65 compounds.

The target of one series is Cytochrome P450 3A4 (Homo sapiens, UniProt P08684). The series can be described thus: Inhibition of human CYP3A4. Type of series: ADME.
Series [1] has as its target T1, Peroxisomal multifunctional enzyme type 2 (Homo sapiens) (UniProt P51659).
T1 sequence (whole entry): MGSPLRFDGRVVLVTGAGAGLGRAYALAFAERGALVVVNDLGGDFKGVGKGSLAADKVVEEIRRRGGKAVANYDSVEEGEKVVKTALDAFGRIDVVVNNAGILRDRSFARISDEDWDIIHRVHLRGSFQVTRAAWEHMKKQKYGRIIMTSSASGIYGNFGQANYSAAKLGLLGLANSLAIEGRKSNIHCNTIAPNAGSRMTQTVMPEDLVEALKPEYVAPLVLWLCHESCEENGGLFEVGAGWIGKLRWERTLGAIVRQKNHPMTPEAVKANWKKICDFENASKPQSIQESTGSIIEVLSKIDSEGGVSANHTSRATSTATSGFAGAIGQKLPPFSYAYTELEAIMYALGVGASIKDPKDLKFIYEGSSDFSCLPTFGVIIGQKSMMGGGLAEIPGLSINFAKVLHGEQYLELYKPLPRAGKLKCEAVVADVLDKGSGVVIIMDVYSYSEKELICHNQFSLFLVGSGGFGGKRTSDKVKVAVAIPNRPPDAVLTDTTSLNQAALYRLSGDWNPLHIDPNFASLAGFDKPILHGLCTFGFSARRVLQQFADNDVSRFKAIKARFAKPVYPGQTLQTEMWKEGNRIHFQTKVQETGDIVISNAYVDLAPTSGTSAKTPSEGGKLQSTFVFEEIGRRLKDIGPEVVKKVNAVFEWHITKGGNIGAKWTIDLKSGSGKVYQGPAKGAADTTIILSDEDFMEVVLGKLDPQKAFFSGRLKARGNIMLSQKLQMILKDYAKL
Description: Inhibition of hydroxysteroid-17-beta dehydrogenase 4.

The target in series [2] is Prothrombin (Homo sapiens) (UniProt P00734). Description: Inhibition of human thrombin.

Chain of Cytochrome P450 3A4 (P08684 whole entry): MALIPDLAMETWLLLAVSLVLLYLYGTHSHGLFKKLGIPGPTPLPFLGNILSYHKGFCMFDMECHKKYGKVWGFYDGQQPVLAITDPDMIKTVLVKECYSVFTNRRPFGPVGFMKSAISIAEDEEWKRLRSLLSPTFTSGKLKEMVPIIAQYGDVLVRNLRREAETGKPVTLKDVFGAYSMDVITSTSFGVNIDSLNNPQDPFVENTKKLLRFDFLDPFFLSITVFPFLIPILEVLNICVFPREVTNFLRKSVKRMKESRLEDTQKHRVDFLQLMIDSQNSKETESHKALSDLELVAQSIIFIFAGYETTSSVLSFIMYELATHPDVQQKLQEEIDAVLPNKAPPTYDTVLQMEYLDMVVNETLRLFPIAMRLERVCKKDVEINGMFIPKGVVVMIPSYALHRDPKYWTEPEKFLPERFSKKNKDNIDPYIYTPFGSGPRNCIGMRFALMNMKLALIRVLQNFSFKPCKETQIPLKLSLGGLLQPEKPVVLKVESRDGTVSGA

Compound `Cc1cccc(CNc2ncncc2-c2ccc(C(=O)N(C)C)cc2)c1` displayed an Activity on Cytochrome P450 3A4 of 631 µM. For the compound `NC(=O)COc1ccc2c3c(c(=O)oc2c1)CCCCC3`, in series [1], the Activity was 25 µM. Regarding `COc1cccc(-c2cncnc2NCc2ccccc2OC)c1`, the Activity on Cytochrome P450 3A4 was found to be 501 µM. Compound `COc1ccccc1CNc1ncnc2ccc(-c3ccccc3OC)cc12` came in with an Activity on Cytochrome P450 3A4 of 6.3 µM. Still for that read-out and setting: the value for `COc1ccc(CNc2ncncc2-c2ccccc2OC)c(OC)c1` was 316 µM; that for `COc1ccc(CNc2ncnc3ccc(-c4ccc(N(C)C)cc4)cc23)c(OC)c1` was 4 µM.

The compound `CN(C)C(=O)c1ccc(-c2cncnc2NCc2ccccc2)cc1` yielded an Activity at Cytochrome P450 3A4 of 2512 µM.

In the case of `COc1ccc(C(=O)n2nc(-c3ccco3)nc2N)cc1OC`, in series [2], the Activity worked out at 2230 nM. `Cc1cccc(CNc2ncncc2-c2cccc(C#N)c2)c1` showed an Activity at Cytochrome P450 3A4 of 199 µM. The same measure, in the same setting: the value for `COc1cccc(-c2cncnc2NCc2cccc(C)c2)c1` was 398 µM. The same measure, in the same setting: the result for `COc1ccccc1-c1cncnc1NCc1ccccc1` reads 251 µM; that for `COc1ccccc1CNc1ncnc2ccc(-c3cccc(C#N)c3)cc12`, 8 µM. As to `COc1ccccc1-c1cncnc1NCc1cccc(C)c1`, on Cytochrome P450 3A4, the Activity came to 100 µM. On the same count and under the same terms, the result for `Cc1cccc(CNc2ncnc3ccc(-c4ccccc4C#N)cc23)c1` reads 1.2 µM; that for `Cc1cccc(CNc2ncncc2-c2ccccc2C(F)(F)F)c1`, 79 µM; that for `COc1ccc(CNc2ncncc2-c2ccccc2CN(C)C)c(OC)c1`, 398 µM.

On Cytochrome P450 3A4, `COc1ccc(CNc2ncncc2-c2cccc(C#N)c2)c(OC)c1` came in with an Activity of 316 µM. In the case of `COc1ccc(CNc2ncncc2-c2ccc(N(C)C)cc2)c(OC)c1`, the Activity at Cytochrome P450 3A4 is 199 µM. At Cytochrome P450 3A4, `Cc1cccc(CNc2ncncc2-c2ccccc2Cl)c1` displayed an Activity of 199 µM. At Cytochrome P450 3A4, `Cc1cccc(CNc2ncncc2-c2ccccc2C)c1` returned an Activity of 398 µM.

The compound `Cc1ccc(C(=O)n2nc(-c3ccco3)nc2N)cc1` had an Activity in series [2] of 741 nM. For `COc1cccc(-c2ccc3ncnc(NCc4ccc(OC)cc4OC)c3c2)c1`, the Activity at Cytochrome P450 3A4 came to 2.5 µM. Still for that read-out and setting: the value for `COc1ccccc1CNc1ncncc1-c1cccc(NS(C)(=O)=O)c1` was 251 µM; that for `COc1ccc(CNc2ncnc3ccc(-c4ccccc4OC)cc23)c(OC)c1` was 2 µM.

At Cytochrome P450 3A4, `COc1ccccc1CNc1ncnc2ccc(-c3ccc(N(C)C)cc3)cc12` showed an Activity of 2 µM.

The compound `Nc1nc(-c2ccco2)nn1C(=O)c1ccc(Cl)cc1` showed an Activity in series [2] of 1460 nM. The compound `Nc1nc(-c2ccco2)nn1C(=O)c1ccccc1` came in with an Activity in series [2] of 926 nM. On Cytochrome P450 3A4, `Cc1cccc(CNc2ncnc3ccc(-c4ccc(C(=O)N(C)C)cc4)cc23)c1` returned an Activity of 2 µM. As for `COc1ccc(CNc2ncnc3ccc(-c4ccccc4C#N)cc23)c(OC)c1`, the Activity at Cytochrome P450 3A4 worked out at 1 µM. The same measure, in the same setting: the value for `COc1ccccc1CNc1ncnc2ccc(-c3ccccc3C#N)cc12` was 4 µM. Consider `CSc1nc(-c2ccco2)nn1C(=O)c1ccccc1`, for which the Activity in series [2] stood at 82 nM. For the compound `COc1ccc(CNc2ncncc2-c2ccccc2C(F)(F)F)c(OC)c1`, at Cytochrome P450 3A4, the Activity is 316 µM. `COc1ccc(C(=O)n2nc(-c3ccco3)nc2SC)cc1OC`: the Activity in series [2] worked out at 204 nM. As for `COc1ccccc1CNc1ncnc2ccc(-c3ccc(C(=O)N(C)C)cc3)cc12`, the Activity on Cytochrome P450 3A4 is 10 µM.

On to `COc1ccccc1CNc1ncnc2ccc(-c3cccc(NS(C)(=O)=O)c3)cc12`, for which, on Cytochrome P450 3A4, the Activity came to 3.2 µM. Take `COc1ccc(CNc2ncnc3ccc(-c4ccc(C(=O)N(C)C)cc4)cc23)c(OC)c1`: the Activity at Cytochrome P450 3A4 stood at 2.5 µM.

Take `COc1ccc(CNc2ncncc2-c2cccc(NS(C)(=O)=O)c2)c(OC)c1`: the Activity at Cytochrome P450 3A4 worked out at 251 µM. Take `COc1ccc(CNc2ncncc2-c2ccccc2C)c(OC)c1`: the Activity at Cytochrome P450 3A4 came to 398 µM. Compound `CN(C)C(=O)c1ccc(-c2ccc3ncnc(NCc4ccccc4)c3c2)cc1` registered an Activity on Cytochrome P450 3A4 of 15.8 µM. The compound `COC(=O)C(C)Oc1ccc2c3c(c(=O)oc2c1)CCCCC3` (stereo not given) returned an Activity in series [1] of 32 µM. At Cytochrome P450 3A4, `COc1ccccc1-c1ccc2ncnc(NCc3ccccc3)c2c1` showed an Activity of 12.6 µM. Take `Cc1ccccc1-c1cncnc1NCc1ccccc1`: the Activity at Cytochrome P450 3A4 is 316 µM. With `COc1ccc(CNc2ncncc2-c2ccc(C(=O)N(C)C)cc2)c(OC)c1`, the Activity on Cytochrome P450 3A4 came out at 501 µM. `COc1ccccc1C(=O)n1nc(-c2ccco2)nc1SC` came in with an Activity in series [2] of 1 nM. `CSc1nc(-c2ccco2)nn1C(=O)c1ccc(C)cc1`: the Activity in series [2] came out at 159 nM. On to `COc1ccc(CNc2ncnc3ccc(-c4cccc(NS(C)(=O)=O)c4)cc23)c(OC)c1`, for which, on Cytochrome P450 3A4, the Activity came to 2 µM.

The compound `COc1ccccc1CNc1ncncc1-c1ccccc1Cl` showed an Activity at Cytochrome P450 3A4 of 199 µM.

Take `COc1ccc(CNc2ncnc3ccc(-c4cccc(C#N)c4)cc23)c(OC)c1`: the Activity on Cytochrome P450 3A4 was 1.6 µM. Regarding `COc1ccccc1C(=O)n1nc(-c2ccco2)nc1N`, the Activity in series [2] was 6930 nM. The compound `COc1ccccc1CNc1ncncc1-c1ccccc1C(F)(F)F` displayed an Activity at Cytochrome P450 3A4 of 79 µM. As to `CN(C)Cc1ccccc1-c1ccc2ncnc(NCc3ccccc3)c2c1`, at Cytochrome P450 3A4, the Activity came to 15.8 µM. `CC(=O)C(C)Oc1ccc2c3c(c(=O)oc2c1)CCCCC3` (stereo not given): the Activity in series [1] turned out to be 25 µM. As to `COc1ccccc1CNc1ncncc1-c1ccc(C(=O)N(C)C)cc1`, the Activity at Cytochrome P450 3A4 stood at 2512 µM. On the same count and under the same terms, the result for `CN(C)c1ccc(-c2ccc3ncnc(NCc4ccccc4)c3c2)cc1` reads 2.5 µM; that for `COc1ccccc1CNc1ncnc2ccc(-c3ccccc3CN(C)C)cc12`, 12.6 µM. For `Nc1nc(-c2ccco2)nn1C(=O)c1ccccc1Cl`, the Activity in series [2] was found to be 14000 nM. On to `Cc1cccc(CNc2ncncc2-c2cccc(NS(C)(=O)=O)c2)c1`, for which, on Cytochrome P450 3A4, the Activity amounted to 158 µM. For the compound `COc1cccc(-c2cncnc2NCc2ccc(OC)cc2OC)c1`, the Activity on Cytochrome P450 3A4 is 501 µM. Regarding `CS(=O)(=O)Nc1cccc(-c2cncnc2NCc2ccccc2)c1`, the Activity at Cytochrome P450 3A4 stood at 631 µM. At Cytochrome P450 3A4, `COc1ccc(CNc2ncnc3ccc(-c4ccccc4CN(C)C)cc23)c(OC)c1` returned an Activity of 8 µM. Compound `COc1ccc(C(=O)n2nc(-c3ccco3)nc2N)cc1` came in with an Activity in series [2] of 828 nM. On to `COc1ccc(CNc2ncncc2-c2ccccc2OC)cc1`, for which the Activity on Cytochrome P450 3A4 came out at 199 µM.

In turn, `COc1cccc(-c2cncnc2NCc2ccccc2)c1` yielded an Activity at Cytochrome P450 3A4 of 316 µM. `CC(=O)COc1ccc2c3c(c(=O)oc2c1C)CCCCC3` showed an Activity in series [1] of 13 µM. In the case of `N#Cc1cccc(-c2cncnc2NCc2ccccc2)c1`, the Activity at Cytochrome P450 3A4 is 1259 µM.
